The target of the test is T1, human TLR9 (Homo sapiens, UniProt Q9NR96).
T1 construct: host or cells: HEK293 (HEK-Blue hTLR9)
T1 sequence (Q9NR96 26-1032): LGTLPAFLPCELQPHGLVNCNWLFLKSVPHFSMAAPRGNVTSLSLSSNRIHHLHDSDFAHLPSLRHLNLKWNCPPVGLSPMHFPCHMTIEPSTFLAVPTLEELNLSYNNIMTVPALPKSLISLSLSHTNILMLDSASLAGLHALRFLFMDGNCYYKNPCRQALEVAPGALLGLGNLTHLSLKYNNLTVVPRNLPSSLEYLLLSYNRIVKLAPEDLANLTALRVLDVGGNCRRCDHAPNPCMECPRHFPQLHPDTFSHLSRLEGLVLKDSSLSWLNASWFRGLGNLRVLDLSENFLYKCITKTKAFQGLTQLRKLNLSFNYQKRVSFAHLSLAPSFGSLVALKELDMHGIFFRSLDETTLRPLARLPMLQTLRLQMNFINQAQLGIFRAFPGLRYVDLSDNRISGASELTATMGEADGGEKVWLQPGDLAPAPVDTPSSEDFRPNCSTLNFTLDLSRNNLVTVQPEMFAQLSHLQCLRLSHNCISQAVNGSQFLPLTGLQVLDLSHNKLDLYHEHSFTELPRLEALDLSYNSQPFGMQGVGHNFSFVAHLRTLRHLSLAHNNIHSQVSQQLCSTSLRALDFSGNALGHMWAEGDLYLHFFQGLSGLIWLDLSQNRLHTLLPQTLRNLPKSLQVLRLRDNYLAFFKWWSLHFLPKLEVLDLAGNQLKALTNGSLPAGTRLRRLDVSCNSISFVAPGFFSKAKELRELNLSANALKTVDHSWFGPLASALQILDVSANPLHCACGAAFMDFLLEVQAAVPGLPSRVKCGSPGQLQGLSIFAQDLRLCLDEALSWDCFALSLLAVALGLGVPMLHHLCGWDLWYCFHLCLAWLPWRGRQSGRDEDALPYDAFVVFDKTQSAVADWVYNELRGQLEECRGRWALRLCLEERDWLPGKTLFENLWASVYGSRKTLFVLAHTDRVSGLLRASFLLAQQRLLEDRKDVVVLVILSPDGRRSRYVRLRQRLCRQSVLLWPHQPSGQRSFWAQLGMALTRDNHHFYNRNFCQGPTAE
Put plainly: HEK293-Blue-hTLR-9 cells assay. The test is classed as cell-based. As to conditions: HEK293-Blue-hTLR9 cells, ODN2006 stimulation, 20 hrs, SEAP reporter; read-out: HEK/hTLR9 IC50.

pIC50: −log10 of the molar value. Bounds are passed on as bounds.

For `[2H]c1ccc2c(N3C[C@@H]4CN(Cc5ccc(N[C@H]6CNC[C@H]6F)nc5C)CCN4[C@H](C)C3)ccc(C#N)c2n1` [Example 82, 5-[(4R,9aS)-8-[[6-[[(3S,4R)-4-fluoropyrrolidin-3-yl]amino]-2-methyl-3-pyridyl]methyl]-4-methyl-3,4,6,7,9,9a-hexahydro-JH-pyrazino[1,2-a]pyrazin-2-yl]-2-deuterio-quinoline-8-carbonitrile], the pIC50 was 7.39. With `[2H]c1ccc2c(N3C[C@@H]4CN(c5ncc(N6C[C@@H](N)[C@H](OC)C6)cc5C)CCN4[C@H](C)C3)ccc(C#N)c2n1` [Example 99, 5-[(4R,9aR)-8-[5-[(3R,4R)-3-amino-4-methoxy-pyrrolidin-1-yl]-3-methyl-2-pyridyl]-4-methyl-3,4,6,7,9,9a-hexahydro-1H-pyrazino[1,2-a]pyrazin-2-yl]-2-deuterio-quinoline-8-carbonitrile] the figure was 6.81; with `[2H]c1ccc2c(N3C[C@@H]4CN(Cc5ccc(N6C[C@@H]7C[C@H]6CN7)nc5C)CCN4[C@H](C)C3)ccc(C#N)c2n1` [Example 92, 5-[(4R,9aS)-8-[[6-[(1S,4S)-2,5-diazabicyclo[2.2.1]heptan-2-yl]-2-methyl-3-pyridyl]methyl]-4-methyl-3,4,6,7,9,9a-hexahydro-1H-pyrazino[1,2-a]pyrazin-2-yl]-2-deuterio-quinoline-8-carbonitrile], 7.47. For the compound `C[C@@H]1CN(c2ccc(C#N)c3ncccc23)C[C@@H]2CN(Cc3ccc4c(c3)CNCC4)CCN21` (relative stereo) [Example 1], the pIC50 is 7.24. With `[2H]c1ccc2c(N3C[C@@H]4CN(Cc5ccc(N6CC7CCC(C6)N7)nc5C)CCN4[C@H](C)C3)ccc(C#N)c2n1` [Example 91, 5-[(4R,9aS)-8-[[6-(3,8-diazabicyclo[3.2.1]octan-3-yl)-2-methyl-3-pyridyl]methyl]-4-methyl-3,4,6,7,9,9a-hexahydro-1H-pyrazino[1,2-a]pyrazin-2-yl]-2-deuterio-quinoline-8-carbonitrile] the figure was 7.35; with `[2H]c1ccc2c(N3C[C@@H]4CN(CCc5ccc(N6CC[C@@](C)(N)C6)nc5)CCN4[C@H](C)C3)ccc(C#N)c2n1` [Example 84, 5-[(4R,9aS)-8-[2-[6-[(3R)-3-amino-3-methyl-pyrrolidin-1-yl]-3-pyridyl]ethyl]-4-methyl-3,4,6,7,9,9a-hexahydro-1H-pyrazino[1,2-a]pyrazin-2-yl]-2-deuterio-quinoline-8-carbonitrile], greater than 7.49. Regarding `[2H]c1ccc2c(N3C[C@@H]4CN(Cc5ccc(N6CC[C@@](C)(N)C6)nc5C)CCN4[C@H](C)C3)ccc(C#N)c2n1` [Example 81, 5-[(4R,9aS)-8-[[6-[(3R)-3-amino-3-methyl-pyrrolidin-1-yl]-2-methyl-3-pyridyl]methyl]-4-methyl-3,4,6,7,9,9a-hexahydro-1H-pyrazino[1,2-a]pyrazin-2-yl]-2-deuterio-quinoline-8-carbonitrile], the pIC50 was greater than 7.49.

Regarding `[2H]c1ccc2c(N3C[C@@H]4CN(Cc5ccc(N6CC7(CN(C)C7)C6)nc5C)CCN4[C@H](C)C3)ccc(C#N)c2n1` [Example 80, 5-[(4R,9aS)-4-methyl-8-[[2-methyl-6-(6-methyl-2,6-diazaspiro[3.3]heptan-2-yl)-3-pyridyl]methyl]-3,4,6,7,9,9a-hexahydro-1H-pyrazino[1,2-a]pyrazin-2-yl]-2-deuterio-quinoline-8-carbonitrile], the pIC50 was greater than 7.49. To `[2H]c1ccc2c(N3C[C@@H]4CN(Cc5ccc(N6CC7CC(C6)N7)nc5C)CCN4[C@H](C)C3)ccc(C#N)c2n1` [Example 90, 5-[(4R,9aS)-8-[[6-(3,6-diazabicyclo[3.1.1]heptan-3-yl)-2-methyl-3-pyridyl]methyl]-4-methyl-3,4,6,7,9,9a-hexahydro-1H-pyrazino[1,2-a]pyrazin-2-yl]-2-deuterio-quinoline-8-carbonitrile] belongs 7.48; to `C[C@@H]1CN(c2ccc(C#N)c3ncccc23)C[C@@H]2CN(Cc3ccnc(N4CCNCC4)c3)CCN21` (relative stereo) [Example 3], 6.96. To `[2H]c1ccc2c(N3C[C@@H]4CN(CCc5ccnc(N6C[C@@H](N)[C@@H](F)C6)c5)CCN4[C@H](C)C3)ccc(C#N)c2n1` [Example 89, 5-[(4R,9aS)-8-[2-[2-[(3R,4S)-3-amino-4-fluoro-pyrrolidin-1-yl]-4-pyridyl]ethyl]-4-methyl-3,4,6,7,9,9a-hexahydro-1H-pyrazino[1,2-a]pyrazin-2-yl]-2-deuterio-quinoline-8-carbonitrile] belongs 7.33; to `[2H]c1ccc2c(N3C[C@@H]4CN(c5ncc(N6CC[C@@](C)(N)C6)cc5C)CCN4[C@H](C)C3)ccc(C#N)c2n1` [Example 97, 5-[(4R,9aR)-8-[5-[(3R)-3-amino-3-methyl-pyrrolidin-1-yl]-3-methyl-2-pyridyl]-4-methyl-3,4,6,7,9,9a-hexahydro-1H-pyrazino[1,2-a]pyrazin-2-yl]-2-deuterio-quinoline-8-carbonitrile], 6.85.

As for `[2H]c1ccc2c(N3C[C@@H]4CN(Cc5nc(N6CCNCC6)ccc5C)CCN4[C@H](C)C3)ccc(C#N)c2n1` [Example 88, 5-[(4R,9aS)-4-methyl-8-[(3-methyl-6-piperazin-1-yl-2-pyridyl)methyl]-3,4,6,7,9,9a-hexahydro-1H-pyrazino[1,2-a]pyrazin-2-yl]-2-deuterio-quinoline-8-carbonitrile], the pIC50 was 7.33. With `Cc1nc(N2CCN[C@H](C)C2)ccc1CN1CCN2[C@@H](C1)CN(c1ccc(C#N)c3ncccc13)C[C@H]2C` [Example 86, 5-[(4R,9aS)-4-methyl-8-[[2-methyl-6-[(3R)-3-methylpiperazin-1-yl]-3-pyridyl]methyl]-3,4,6,7,9,9a-hexahydro-1H-pyrazino[1,2-a]pyrazin-2-yl]quinoline-8-carbonitrile] the figure was 7.21; with `Cc1nc(N2CCNC[C@@H]2C)ccc1CN1CCN2[C@@H](C1)CN(c1ccc(C#N)c3ncccc13)C[C@H]2C` [Example 85, 5-[(4R,9aS)-4-methyl-8-[[2-methyl-6-[(2S)-2-methylpiperazin-1-yl]-3-pyridyl]methyl]-3,4,6,7,9,9a-hexahydro-1H-pyrazino[1,2-a]pyrazin-2-yl]quinoline-8-carbonitrile], 7.01; with `[2H]c1ccc2c(N3C[C@@H]4CN(c5ncc(N6C[C@@H]7C[C@H]6CN7)cc5C)CCN4[C@H](C)C3)ccc(C#N)c2n1` [Example 95, 5-[(4R,9aR)-8-[5-[(1S,4S)-2,5-diazabicyclo[2.2.1]heptan-2-yl]-3-methyl-2-pyridyl]-4-methyl-3,4,6,7,9,9a-hexahydro-1H-pyrazino[1,2-a]pyrazin-2-yl]-2-deuterio-quinoline-8-carbonitrile], 6.85. With `[2H]c1ccc2c(N3C[C@@H]4CN(c5ncc(N6C[C@H]7NCCO[C@@H]7C6)cc5C)CCN4[C@H](C)C3)ccc(C#N)c2n1` [Example 100, 5-[(4R,9aR)-8-[5-[(4aR,7aR)-3,4,4a,5,7,7a-hexahydro-2H-pyrrolo[3,4-b][1,4]oxazin-6-yl]-3-methyl-2-pyridyl]-4-methyl-3,4,6,7,9,9a-hexahydro-1H-pyrazino[1,2-a]pyrazin-2-yl]-2-deuterio-quinoline-8-carbonitrile] the figure was 6.76; with `[2H]c1ccc2c(N3C[C@@H]4CN(c5ncc(N6C[C@@H](N)[C@@H](OC)C6)cc5C)CCN4[C@H](C)C3)ccc(C#N)c2n1` [Example 96, 5-[(4R,9aR)-8-[5-[(3R,4S)-3-amino-4-methoxy-pyrrolidin-1-yl]-3-methyl-2-pyridyl]-4-methyl-3,4,6,7,9,9a-hexahydro-1H-pyrazino[1,2-a]pyrazin-2-yl]-2-deuterio-quinoline-8-carbonitrile], 6.72; with `[2H]c1ccc2c(N3C[C@@H]4CN(Cc5ccc(N6C[C@H]7NCCO[C@@H]7C6)nc5C)CCN4[C@H](C)C3)ccc(C#N)c2n1` [Example 98, 5-[(4R,9aS)-8-[[6-[(4aR,7aR)-3,4,4a,5,7,7a-hexahydro-2H-pyrrolo[3,4-b][1,4]oxazin-6-yl]-2-methyl-3-pyridyl]methyl]-4-methyl-3,4,6,7,9,9a-hexahydro-1H-pyrazino[1,2-a]pyrazin-2-yl]-2-deuterio-quinoline-8-carbonitrile], 7.24.

(Values after US20220340597A1, “HEXAHYDRO-1H-PYRAZINO[1,2-A]PYRAZINE COMPOUNDS FOR THE TREATMENT OF AUTOIMMUNE DISEASE” (Hoffmann-La Roche Inc., priority 2019, published 2022).)
